Data from patent US7618988B2, “Use of substituted aminomethyl chromans” (Merck Patentgesellschaft, priority 2001, dated 2009).

How the values were obtained:
parkinsonian monkeys = conditions: literature; cited from earlier work
dopamine D4 receptors = dopamine D4 receptors (Homo sapiens, UniProt P21917); conditions: literature statement; cited from earlier work
cataleptic rat = assay: reversal of catalepsy in rats; type: in vivo; conditions: subcutaneous; for ED50: Rattus norvegicus, sc, read-out: ED50 (calculated dose to reverse catalepsy by 50%)
Protocol: R represents hydrogen or a hydroxyl protecting group, and their optical isomers and pharmaceutically acceptable salts, in particular 2-({[5-(4-fluorophenyl)-pyridin-3ylmethyl]-amino}-methyl)-chroman-4-ol or an optical isomer or a physiologically acceptable salt or solvate thereof, excert an extraordinary potency in reversing catalepsy. Extrapyramidal motor side effects in e.g. rodents are measured by the ability of a drug to induce catalepsy. Catalepsy is defined as a state where an animal continues to remain in an unnormal (nonphysiological ‘uncomfortable’) posture for a long time (e.g.: M. E. Stanley and S. D. Glick, Neuropharmacology, 1996; 15: 393-394; C. J. E. Niemegeers and P. Janssen, Life Sci., 1979, […]). For example, if a hindpaw of a rat is placed on an elevated level, e.g. a platform elevated 3 cm above ground level, a normal rat immediately withdraws the hindpaw from the platform to the ground level. A cataleptic rat remains in this unnatural posture even for minutes.

Parkinson patients = conditions: literature; cited from earlier work
[1] = system: schizophrenic inpatients on long-term antipsychotic treatment; assay: study in tardive dyskinesia (AIMS); type: in vivo, human; conditions: add on, 2,5 to 20 mg b.i.d., vs placebo period
Text: Tardive dyskinesia is a common adverse effect of long-term treatment with neuroleptics. A typical study to investigate the efficacy of the compounds according to the invention in tardive dyskinesia is described in the following. 32 schizophrenic (DSM-III-R) inpatients aged 25-60 years on long-term stable antipsychotic treatment (duration of at least 5 years) entered the study. (2R,4R)-2-({[5-(4-fluorophenyl)-pyridin-3ylmethyl]-amino}-methyl)-chroman-4-ol monohydrochloride hemihydrate or placebo is administered as “add on” to the antipsychotic treatment, which is kept constant during the whole study. The dose of blinded medication is titrated over a period of 3 weeks in a range from 2,5 to 20 mg b.i.d. Then the medication is maintained under double-blind conditions for 2 weeks. After a 2-week wash-out period, the test drugs are crossed over. Assessments of tardive dyskinesia by means of the Abnormal Involuntary Movement Scale (AIMS, see above) and of Parkinsonian extrapyramidal side effects (UPDRS, see above) are made pretreatment and posttreatment.

[2] = system: patients with idiopathic Parkinson's disease; assay: double-blind study, idiopathic Parkinson's disease; type: in vivo, human; conditions: add on, 2.5 to 10 mg b.i.d.
Text: A typical study to investigate the efficacy of the compounds according to the invention in the treatment of idiopathic Parkinson's disease is described in the following. 180 patients of either sex with idiopathic Parkinson's disease participate in a double-blind study. The main inclusion criteria are Hoehn & Yahr stage ≧2.0 (Hoehn H. M. et al, Neurology 1967; 17: 427442), aged 50-80 years, symptom duration of at least 5 years. (2R,4R)-2-({[5-(4-fluorophenyl)-pyridin-3ylmethyl]-amino}-methyl)-chroman-4-ol monohydrochloride hemihydrate or placebo is administered as “add on” to the conventional Parkinson treatment, which is maintained unchanged during the whole study. The dose of blinded medication is titrated over a period of 4 weeks in a range from 2.5 to 10 mg b.i.d. Then the medication is kept constant for 1 week. Before the start of titration and at the end of the treatment period the patients fill a diary card in 30 min. intervals for 48 hours. The diary card differentiates 5 different states: (1) “on” without dyskinesia, (2) “on” with troublesome dyskinesia, (3) “on” with non-troublesome dyskinesia, (4) “off” time, and (5) time asleep (Hauser R A et al., Clin. Neuropharmacol., 2000, 23, 75-81). […]

MSA patients = assay: study in MSA patients (UPDRS); type: in vivo, human; conditions: add on, 2,5 to 20 mg b.i.d.
Protocol: The study design is similar to that described above for Parkinson's disease. (2R,4R)-2-({[5-(4-fluorophenyl)-pyridin-3ylmethyl]-amino}-methyl)-chroman-4-ol monohydrochloride hemihydrate or placebo is titrated as “add on” to the conventional treatment (dose range 2,5 to 20 mg b.i.d.). After a double-blind dose-finding phase of 3 weeks during which the individual dose is identified for each patient on the basis of tolerability and efficacy, the dose is maintained unchanged for 3 additional weeks. Before the start of titration and at the end of the treatment period a complete UPDRS assessment is performed in each patient (primary outcome measure).

[3] = system: patients with advanced idiopathic Parkinson's disease; assay: double-blind study, advanced idiopathic Parkinson's disease with peak-dose dyskinesia; type: in vivo, human; conditions: add on, 2.5 to 10 mg b.i.d., diary card
Text: A typical study to investigate the efficacy of the compounds according to the invention for adverse effects in Parkinson's disease is described in the following. 40 patients of either sex with advanced idiopathic Parkinson's disease complicated by “peak-dose” dyskinesia participate in a double-blind study. The main inclusion criteria are Hoehn & Yahr stage ≧2.5 (lit.: Hoehn H. M. et al, Neurology 1967; 17: 427-442), aged 40-75 years, symptom duration of at least 5 years, and a l-dopa treatment duration of at least 3 years. (2R,4R)-2-({[5-(4-fluorophenyl)-pyridin-3ylmethyl]-amino}-methyl)-chroman-4-ol monohydrochloride hemihydrate or placebo is administered as “add on” to the conventional Parkinson treatment, which is maintained unchanged during the whole study. The dose of blinded medication is titrated over a period of 3 weeks in a range from 2.5 to 10 mg b.i.d. Then the medication is kept constant for 3 weeks. Before the start of titration and at the end of the treatment period the patients fill a diary card in 30 min. inervals for 48 hours. The diary card differentiates 5 different states: (1) “on” without dyskinesia, (2) “on” with troublesome dyskinesia, (3) “on” with non-troublesome dyskinesia, (4) “off” time, and (5) time asleep (Hauser R A et al., Clin. Neuropharmacol., 2000, 23, 75-81). The primary outcome variable of the protocol is the change in “on” time with troublesome dyskinesia. […] The other parameters are not changed.

dopamine D4 receptors, sequence (P21917 whole entry): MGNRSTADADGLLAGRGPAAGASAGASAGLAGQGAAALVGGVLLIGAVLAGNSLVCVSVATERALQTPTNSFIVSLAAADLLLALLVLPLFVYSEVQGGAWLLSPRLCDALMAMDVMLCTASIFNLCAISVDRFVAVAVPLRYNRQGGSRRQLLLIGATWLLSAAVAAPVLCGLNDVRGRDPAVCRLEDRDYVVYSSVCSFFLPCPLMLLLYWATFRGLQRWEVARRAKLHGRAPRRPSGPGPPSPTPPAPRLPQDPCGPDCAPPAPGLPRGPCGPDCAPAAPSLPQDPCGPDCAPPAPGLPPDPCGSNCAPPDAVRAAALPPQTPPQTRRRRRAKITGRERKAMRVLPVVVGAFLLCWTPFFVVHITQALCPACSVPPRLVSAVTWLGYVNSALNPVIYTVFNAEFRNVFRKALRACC

Compound: Cc1ccc2c(c1)C(N1CCN(C)CC1)=Nc1cccnc1N2 [8-methyl-6-(4-methyl-1-piperazineyl)-11 H-pyrido[2,3-b][1,4,]benzodiazepine]
- effects in parkinsonian monkeys (parkinsonian monkeys): beneficial effects
- selectivity for the dopamine D4 receptor compared to clozapine (dopamine D4 receptors): much increased selectivity
- ED50 (calculated dose to reverse catalepsy by 50%) (cataleptic rat): 3 mg/kg

Compound: O=C1CC2(CCCC2)CC(=O)N1CCCCN1CCN(c2ncccn2)CC1 [buspirone]
- anti-dyskinetic effect (Parkinson patients): moderate anti-dyskinetic properties
- ED50 (cataleptic rat): 6 mg/kg

Compound: O=C1c2ccccc2S(=O)(=O)N1CCCCN1CCN(c2ncccn2)CC1 [ipsapirone]
- ED50 (cataleptic rat): 10 mg/kg

Compound: (2R,4R)-2-({[5-(4-fluorophenyl)-pyridin-3ylmethyl]-amino}-methyl)-chroman-4-ol monohydrochloride hemihydrate
- AIMS scores [1]: significantly lower than during placebo period
- clinical improvement [2]: significant clinical improvement
- efficacy to treat tremor [2]: efficacy to treat tremor is shown
- UPDRS, Parkinson symptoms (MSA patients): significant clinical improvement of Parkinson symptoms
- other diary parameters [3]: not changed
- “on” time with troublesome dyskinesia [3]: significant reduction
- “on” time without dyskinesia [3]: significantly increase
